# Measured values from ChEMBL document CHEMBL1221244, “Total synthesis and biological evaluation of tambjamine K and a library of unnatural analogs” (Bioorg Med Chem Lett, 2010).
# Calls of active or inactive are those of the source. The calls are words filed in the database; no cut-off is given here.
# Columns and labels:
# [1] = test system: HCT-116; assay: Antiproliferative activity against human HCT116 cells after 48 hrs by WST-1 assay; type: functional, cell-based; conditions: HCT-116, 48 h
# [2] = test system: MDA-MB-231; assay: Antiproliferative activity against human MDA-MB-231 cells after 48 hrs by WST-1 assay; type: functional, cell-based; conditions: MDA-MB-231, 48 h
# [3] = test system: Caco-2; assay: Antiproliferative activity against human Caco-2 cells; type: functional, cell-based
# [4] = test system: MCF7; assay: Antiproliferative activity against human MCF7 cells assessed as cell viability at 10 uM after 48 hrs by WST-1 assay; type: functional; conditions: MCF7, 48 h, read-out: Activity
# [5] = test system: SW-620; assay: Antiinvasive activity against human SW620 cells at 10 uM after 24 hrs; type: functional, cell-based
# [6] = test system: MDA-MB-231; assay: Antiproliferative activity against human MDA-MB-231 cells assessed as cell viability at 10 uM after 48 hrs by WST-1 assay; type: functional; conditions: MDA-MB-231, 48 h, read-out: Activity
# [7] = test system: NCI-H520; assay: Antiproliferative activity against human NCIH520 cells after 48 hrs after 48 hrs by WST-1 assay; type: functional, cell-based
SMILES,IC50 [1] [nM],IC50 [2] [µM],viability at 10 µM [4] [%],other results
COC1=CC(c2ccc[nH]2)=N/C1=C\NCCC(C)C [TAMBJAMINE K],13700,15.3,,IC50 [3]: 3.3 nM
COC1=CC(c2ccc[nH]2)=N/C1=C\NC1CCc2ccccc21 (configuration not stated),,,< 20,
CO[C@@H]1CC(c2ccc[nH]2)=N[C@]12O[C@@H](C)C[C@@H]1CCCCCCCc3ccc([nH]3)[C@H]12 [MARINEOSIN A],140,0.36,,
COC1=CC(c2ccc[nH]2)=N/C1=C\NCC1CCCCC1,,,< 20,
COC1=CC(c2ccc[nH]2)=N/C1=C/c1ccc(CCCCCCC/C=C/C(C)=O)[nH]1,3600,3.5,,
COC1=CC(c2ccc[nH]2)=N/C1=C\NC1Cc2ccccc2C1,,,< 20,Activity [5]: inactive
CCCC(C)N/C=C1\N=C(c2ccc[nH]2)C=C1OC (configuration not stated),,,< 20,
COC1=CC(c2ccc[nH]2)=N/C1=C\NC1CCCc2ccccc21 (configuration not stated),1800,4,< 10,viability at 10 µM [6]: 40%; Activity [7]: inactive
